The conditions of this data set: Liquid, Vibrating tube method.

± gives the expanded uncertainty stated by the source.

What is called mass density is mass per unit of volume.

As to `C=CCCCCCCCCC(=O)OC` [methyl 10-undecenoate], the mass density reads like this: (280.15 K, 100 kPa) 897.46 ± 5.7 kg/m3; (280.15 K, 40000 kPa) 914.37 ± 5.8 kg/m3; (293.15 K, 100 kPa) 886.83 ± 5.6 kg/m3; (293.15 K, 40000 kPa) 906.75 ± 5.8 kg/m3; (303.15 K, 100 kPa) 878.63 ± 5.5 kg/m3; (303.15 K, 40000 kPa) 895.63 ± 5.7 kg/m3. Also, the mass density (313.15 K, 100 kPa) is listed as 870.71 ± 5.5 kg/m3; the mass density (313.15 K, 40000 kPa) was found to be 888.48 ± 5.7 kg/m3; the mass density (323.15 K, 100 kPa) was 862.33 ± 5.4 kg/m3; the mass density (323.15 K, 40000 kPa) is recorded as 881.75 ± 5.6 kg/m3; the mass density (333.15 K, 100 kPa) is 854.49 ± 5.3 kg/m3; the mass density (333.15 K, 40000 kPa) came to 874.61 ± 5.6 kg/m3. The mass density by setting is: (343.15 K, 100 kPa) 845.8 ± 5.3 kg/m3; (352.15 K, 100 kPa) 838.42 ± 5.2 kg/m3.
Take `COC(=O)CCCCCCCCCCC(=O)OC` [dimethyl dodecanoate]: the mass density runs as follows: (313.15 K, 101.33 kPa) 959.4 ± 3.9 kg/m3; (323.15 K, 101.33 kPa) 951 ± 3.9 kg/m3; (333.15 K, 101.33 kPa) 943.1 ± 3.9 kg/m3; (343.15 K, 101.33 kPa) 934.4 ± 3.8 kg/m3; (352.15 K, 101.33 kPa) 927 ± 3.8 kg/m3.

The record behind these values is the NIST ThermoML archive (doi:10.1021/acs.jced.6b00360).
